Like-named read-outs stand apart in the source and are kept apart here.
Key:
[1] = system: mammalian cell lines; conditions: cited from earlier work
[2] = system: Pneumocystis; conditions: cited from earlier work
[3] = target: T1, hERG (Homo sapiens, UniProt Q12809); assay: Immunofluorescence microscopy of hERG localization in HEK-hERG cells; assay type: cell-based; conditions: 24 h, pentamidine 10 μM, analogues 10 μM
[4] = target: T1, hERG; assay: Western blot of hERG maturation; assay type: cell-based; conditions: 24 h, HEK-hERG; for hERG maturation (mature/immature ratio), dose–response: 0.5–20 μM

T1 sequence (Q12809 whole entry): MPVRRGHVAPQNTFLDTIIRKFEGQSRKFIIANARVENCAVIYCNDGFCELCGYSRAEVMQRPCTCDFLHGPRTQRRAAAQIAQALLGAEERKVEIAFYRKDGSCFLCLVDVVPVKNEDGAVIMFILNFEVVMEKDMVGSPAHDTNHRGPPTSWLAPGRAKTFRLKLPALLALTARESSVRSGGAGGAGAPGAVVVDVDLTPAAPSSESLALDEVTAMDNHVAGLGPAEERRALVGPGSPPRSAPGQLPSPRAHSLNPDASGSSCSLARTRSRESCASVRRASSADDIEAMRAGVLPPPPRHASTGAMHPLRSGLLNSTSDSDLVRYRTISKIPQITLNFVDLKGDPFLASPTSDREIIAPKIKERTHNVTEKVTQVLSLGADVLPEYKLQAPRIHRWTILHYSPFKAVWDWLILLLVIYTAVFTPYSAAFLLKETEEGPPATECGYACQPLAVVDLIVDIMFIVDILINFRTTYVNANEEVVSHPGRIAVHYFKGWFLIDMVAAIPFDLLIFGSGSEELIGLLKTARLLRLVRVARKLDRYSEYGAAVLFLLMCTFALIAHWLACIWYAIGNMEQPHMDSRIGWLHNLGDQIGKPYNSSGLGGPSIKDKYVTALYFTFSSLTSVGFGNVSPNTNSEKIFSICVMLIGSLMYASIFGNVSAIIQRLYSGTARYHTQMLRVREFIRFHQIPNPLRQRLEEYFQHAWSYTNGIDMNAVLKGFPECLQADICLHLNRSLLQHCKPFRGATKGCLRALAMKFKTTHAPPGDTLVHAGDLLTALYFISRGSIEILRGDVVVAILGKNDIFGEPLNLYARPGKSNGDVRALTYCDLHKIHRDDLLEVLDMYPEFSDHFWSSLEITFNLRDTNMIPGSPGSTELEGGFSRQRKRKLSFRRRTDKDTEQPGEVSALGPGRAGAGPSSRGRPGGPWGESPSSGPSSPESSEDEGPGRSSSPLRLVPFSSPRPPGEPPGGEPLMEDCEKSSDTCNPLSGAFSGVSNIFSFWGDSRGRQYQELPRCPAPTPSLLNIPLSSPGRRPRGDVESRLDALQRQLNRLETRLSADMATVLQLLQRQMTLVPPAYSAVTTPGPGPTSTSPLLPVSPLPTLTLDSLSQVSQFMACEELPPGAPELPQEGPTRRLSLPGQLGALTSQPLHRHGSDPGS

| Compound | subcellular localization / membrane expression of hERG [3] | cytotoxicity ([1]; mammalian cell lines) | hERG maturation (mature/immature ratio), dose–response [4] | further results |
| --- | --- | --- | --- | --- |
| Cc1cc(C(=N)N)cc(C)c1OCCN(CCOc1c(C)cc(C(=N)N)cc1C)S(=O)(=O)c1ccccc1.Cl.Cl [3-phenylsulfonyl-1,5-bis(4-amidino-2,6-dimethylphenoxy)-3-azapentane dihydrochloride, reference compound] | – | – | – | cytotoxicity [1]: very low cytotoxicity; anti-Pneumocystis activity [2]: promising activity |
| Cl.Cl.N=C(N)c1ccc(OCCSCCOc2ccc(C(=N)N)cc2)cc1 [Compound 1, 1,5-bis(4-amidinophenoxy)-3-thiapentane dihydrochloride] | pattern comparable with control cells and clear membrane staining was detected | less or moderate cytotoxicity | dose-dependently decreased | – |
| Cl.Cl.N=C(N)c1ccc(SCCOCCSc2ccc(C(=N)N)cc2)cc1 [Compound 2, 1,5-bis[4-(amidino)phenylthio]-3-oxapentane dihydrochloride] | pattern comparable with control cells and clear membrane staining was detected | – | dose-dependently decreased | – |
| Cl.Cl.c1cc(C2=NCCN2)ccc1OCCSCCOc1ccc(C2=NCCN2)cc1 [Compound 4, 1,5-bis[4-(4,5-dihydro-2-imidazolyl)phenoxy]-3-thiapentane dihydrochloride] | – | less or moderate cytotoxicity | – | – |
| CN(CCOc1ccc(NS(C)(=O)=O)cc1)CCc1ccc(NS(C)(=O)=O)cc1 [Dofetilide, reference compound] | – | – | – | hERG maturation (mature/immature ratio) ([4]; pentamidine 10 μM, dofetilide 1 μM, analogues 1 and 10 μM): increases |
